Experimental findings from US7511063B2, “High affinity quinoline-based kinase ligands” (Schering Corporation, priority 2006, dated 2009) are described below.

In the first experiment the target is CDK-2 (Homo sapiens, UniProt P24941). Put plainly: Fluorescence polarization displacement assay (inhibitory effectiveness toward CDK-2). Format: binding. The settings on record: IC50. The method, then: Fluorescence Polarization Assay
Binding assays were performed in a 384 well Costar NBS coated plate. […] The concentration of BMS-Alexa Fluor647 was 50 nM. Serial dilutions of compounds were added to 12 wells. The final buffer concentration was 10 mM Hepes, pH 7.5, 150 mM NaCl, and 1 mM DTT. Samples were incubated at room temperature for 15 minutes and then read in an Analyst HT instrument using an excitation and emission wavelength of 580 and 680 nm, respectively.
(Polarisation of emitted light reports the rotation of a fluorescent probe.)
Compound `CCCCCCc1ccc2nc(C(=O)N[C@@H](Cc3ccc(O)cc3)C(=O)OC)cc(C(=O)O)c2c1` [Compound 4] displayed an IC50 of under 1 µM.
The same measure, in the same setting: to `COC(=O)[C@H](Cc1ccc(O)cc1)NC(=O)c1cc(C(=O)O)c2cc(CCc3ccc(Cl)cc3)ccc2n1` [Compound 9] belongs under 1 µM; to `COC[C@H](Cc1ccc(O)cc1)NC(=O)c1cc(C(=O)O)c2cc(/C=C/c3ccc(Cl)cc3)ccc2n1` [Compound 16], under 1 µM; to `COC(=O)[C@H](Cc1ccc(O)cc1)NC(=O)c1cc(C(=O)O)c2cc(-c3ccccc3)ccc2n1` [Compound 73], under 1 µM.
In the case of `COC(=O)[C@H](Cc1ccc(F)cc1)NC(=O)c1cc(C(=O)O)c2cc(-c3cccc(C(F)(F)F)c3)ccc2n1` [Compound 109], the IC50 lay within 1 to 40 µM.
`COC(=O)[C@H](Cc1ccc(OC)cc1)NC(=O)c1cc(C(=O)O)c2cc(-c3cccc(C(F)(F)F)c3)ccc2n1` [Compound 162] yielded an IC50 of over 40 µM.
On the same count and under the same terms, to `COC(=O)[C@H](Cc1cccc(O)c1)NC(=O)c1cc(C(=O)O)c2cc(-c3cccc(C(F)(F)F)c3)ccc2n1` [Compound 163] belongs over 40 µM.
The compound `COC(=O)[C@@H](Cc1ccc(O)cc1)NC(=O)c1cc(C(=O)O)c2cc(-c3cccc(C(F)(F)F)c3)ccc2n1` [Compound 169] returned an IC50 of over 40 µM.

Still in this experiment, the particulars now being: inhibitory effectiveness toward CDK-2; read-out: IC50.
Consider `COC(=O)[C@H](Cc1ccc(O)cc1)NC(=O)c1cc(C(=O)O)c2cc(-c3ccc(OC(F)(F)F)cc3)ccc2n1` [Compound 3], for which the concentration for half-maximal inhibition (IC50) was under 1 µM.
The same measure, in the same setting: under `COC(=O)[C@H](Cc1ccc(O)cc1)NC(=O)c1cc(C(=O)O)c2cc(/C=C/c3ccc(Cl)cc3)ccc2n1` [Compound 7] stands under 1 µM; under `COC[C@H](Cc1ccc(O)cc1)NC(=O)c1cc(C(=O)O)c2cc(-c3cccc(C(F)(F)F)c3)ccc2n1` [Compound 13], under 1 µM.
Regarding `CCCCCC#Cc1ccc2nc(C(=O)N[C@H](COC)Cc3ccc(O)cc3)cc(C(=O)O)c2c1` [Compound 19], the IC50 was under 1 µM.
Turning to `CCCCCCCc1ccc2nc(C(=O)N[C@H](COC)Cc3ccc(O)cc3)cc(C(=O)O)c2c1` [Compound 20], the IC50 is under 1 µM.
On to `CCCCC/C=C/c1ccc2nc(C(=O)N[C@H](COC)Cc3ccc(O)cc3)cc(C(=O)O)c2c1` [Compound 21], for which the half-inhibitory concentration (IC50) was under 1 µM.
Still for that read-out and setting: to `COC(=O)[C@H](Cc1ccc(O)cc1)NC(=O)c1cc(C(=O)O)c2cc(-c3cc(Cl)cc(Cl)c3)ccc2n1` [Compound 39] belongs under 1 µM.
Take `Cc1cnc([C@H](Cc2ccc(O)cc2)NCc2cc(C(=O)O)c3cc(-c4cccc(C(F)(F)F)c4)ccc3n2)o1` [Compound 45]: the IC50 is under 1 µM.
As to `COC[C@H](Cc1ccc(O)cc1)NC(=O)c1cc(C(=O)O)c2cc(OCc3ccc(C(F)(F)F)cc3)ccc2n1` [Compound 55], the IC50 was under 1 µM.
The same measure, in the same setting: under `CO/N=C\[C@H](Cc1ccc(O)cc1)NC(=O)c1cc(C(=O)O)c2cc(-c3cccc(C(F)(F)F)c3)ccc2n1` [Compound 59] stands under 1 µM; under `COC(=O)[C@H](Cc1ccc(O)cc1)NC(=O)c1cc(C(=O)O)c2cc(-c3ccsc3)ccc2n1` [Compound 90], 1 to 40 µM.
Regarding `COC(=O)[C@H](Cc1ccc(O)cc1)NC(=O)c1cc(C(=O)O)c2cc(-c3cccc(O)c3)ccc2n1` [Compound 120], the IC50 was in the range of 1 to 40 µM.
Still for that read-out and setting: to `COC(=O)[C@@H](NC(=O)c1cc(C(=O)O)c2cc(-c3cccc(C(F)(F)F)c3)ccc2n1)c1ccc(O)cc1` [Compound 122] belongs 1 to 40 µM.
Take `COC(=O)[C@H](Cc1ccccc1)NC(=O)c1cc(C(=O)O)c2cc(-c3cccs3)ccc2n1` [Compound 155]: the IC50 is over 40 µM.
As to `O=C(N[C@@H](Cc1ccc(O)cc1)c1nnn[nH]1)c1cc(C(=O)O)c2cc(-c3cccc(C(F)(F)F)c3)ccc2n1` [Compound 170], the IC50 is over 40 µM.
Same read-out and setting: to `COC[C@H](Cc1ccc(O)cc1)NCc1cc(C(=O)OCCO)c2cc(-c3cccc(C(F)(F)F)c3)ccc2n1` [Compound 173] belongs over 40 µM.
For the compound `COC[C@H](Cc1ccc(O)cc1)NCc1cc(C(=O)OCC(O)CO)c2cc(-c3cccc(C(F)(F)F)c3)ccc2n1` (stereo partly drawn) [Compound 174], the IC50 is over 40 µM.
On to `COC[C@H](Cc1ccc(O)cc1)NCc1cc(C(=O)OCCN(C)C)c2cc(-c3cccc(C(F)(F)F)c3)ccc2n1` [Compound 175], for which the IC50 is over 40 µM.
Still for that read-out and setting: under `COC[C@H](Cc1ccc(O)cc1)NCc1cc(C(=O)OC[C@@H](N)C(C)C)c2cc(-c3cccc(C(F)(F)F)c3)ccc2n1` [Compound 176] stands over 40 µM.
Still for that read-out and setting: to `COC[C@H](Cc1ccc(O)cc1)NC(=O)c1cc(C(=O)O)c2cc(C#CCCO)ccc2n1` [Compound 186] belongs over 40 µM; to `COC[C@H](Cc1ccc(O)cc1)NC(=O)c1cc(C(=O)O)c2cc(CCCCO)ccc2n1` [Compound 189], over 40 µM; to `COC[C@H](Cc1ccc(O)cc1)NC(=O)c1cc(C(=O)O)c2cc(-c3cccc(CN4CC[C@@H](O)C4)c3)ccc2n1` [Compound 192], over 40 µM.
As for `COC[C@H](Cc1ccc(O)cc1)NC(=O)c1cc(C(=O)O)c2cc(COc3ccc(Cl)cc3)ccc2n1` [Compound 199], the IC50 is over 40 µM.
The same measure, in the same setting: to `COC[C@H](Cc1ccc(O)cc1)NC(=O)c1cc(C(=O)O)c2cc(C#CCCn3cccn3)ccc2n1` [Compound 224] belongs over 40 µM; to `CC(C)(C)S(=O)(=O)NCc1cc(C(=O)N[C@H](CN)Cc2ccc(O)cc2)nc2ccc(C#Cc3ccccn3)cc12` [Compound 225], over 40 µM.

Broadly, the IC50 is the concentration that gives 50% inhibition.
